Test results as given in patent US11059786B2, “Aminopyridine compounds and methods for the preparation and use thereof” (Cortexyme, Inc., priority 2017, dated 2021).

target: T1, RgpB (Porphyromonas gingivalis, UniProt P95493); experiment: RgpB inhibition, fluorogenic assay; assay type: biochemical; details: Activity (RgpB IC50), 0.02 nM RgpB, 10 μM Boc-Phe-Ser-Arg-MCA, 90 minutes, 37° C., pH=7.5
T1 construct: 0.02 nM RgpB, isolated from culture of Porphyromonas gingivalis; endogenous in cells
Description: The capacities of compounds of the present invention to inhibit the activity of RgpB were measured in a fluorogenic assay similar to those described in Barret Biochemical Journal. 1980, 187(3), 909. The specific assay conditions were as follows. Buffer: pH=7.5, 100 mM Tris-HCl, 75 mM NaCl, 2.5 mM CaCl2, 10 mM cysteine, 1% DMSO after all additions. Protein: 0.02 nM RgpB, isolated from culture of Porphyromonas gingivalis, as described in Pike et al. J. Biol. Chem. 1994, 269(1), 406, and Potempa and Nguyen. Current Protocols in Protein Scienc. 2007, 21.20.1-21.20.27. Fluorogenic substrate: 10 μM Boc-Phe-Ser-Arg-MCA. Time=90 minutes. Temperature=37° C. Each compound: 10 concentrations, starting at either 100 μM or 100 nM, with lower concentrations generated by serial 3-fold dilutions. By testing a range of concentrations for each compound, the concentration required to inhibit the activity of RgpB by 50% (the “IC50”) was determined.

T1 sequence (P95493 230-664): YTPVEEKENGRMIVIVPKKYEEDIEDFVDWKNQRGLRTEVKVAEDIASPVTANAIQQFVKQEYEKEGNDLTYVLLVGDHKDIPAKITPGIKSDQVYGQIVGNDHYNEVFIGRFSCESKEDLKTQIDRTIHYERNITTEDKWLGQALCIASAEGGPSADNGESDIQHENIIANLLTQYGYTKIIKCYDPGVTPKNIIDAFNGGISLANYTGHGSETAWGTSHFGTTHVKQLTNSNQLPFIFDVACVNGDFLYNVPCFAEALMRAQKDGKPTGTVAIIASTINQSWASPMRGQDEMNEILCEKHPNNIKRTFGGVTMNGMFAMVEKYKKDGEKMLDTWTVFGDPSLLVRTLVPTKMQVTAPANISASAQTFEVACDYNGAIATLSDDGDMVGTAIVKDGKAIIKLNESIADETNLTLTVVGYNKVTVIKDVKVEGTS

`Nc1ccc(C[C@H](NC(=O)C2CCCC2)C(=O)COc2c(F)c(F)cc(F)c2F)cn1` [Compound 56, (S)—N-(1-(6-aminopyridin-3-yl)-3-oxo-4-(2,3,5,6-tetrafluorophenoxy)butan-2-yl)cyclopentanecarboxamide] and `Nc1ccc(C[C@@H](NC(=O)C2CCCC2)C(=O)COc2c(F)c(F)cc(F)c2F)cn1` [Compound 57, (R)—N-(1-(6-aminopyridin-3-yl)-3-oxo-4-(2,3,5,6-tetrafluorophenoxy)butan-2-yl)cyclopentanecarboxamide] cannot be ordered by IC50: < 0.1 µM for the first, < 0.1 µM for the second.

First: COC(C)(C)C(=O)NC(Cc1ccnc(N)c1)C(=O)COc1ccon1 (centres unmarked) [Compound 63, N-(1-(2-aminopyridin-4-yl)-4-(isoxazol-3-yloxy)-3-oxobutan-2-yl)-2-methoxy-2-methylpropanamide]
Second: COC(C)(C)C(=O)NC(Cc1ccnc(N)c1)C(=O)COc1c(F)ccc(F)c1F (centres unmarked) [Compound 64, N-(1-(2-aminopyridin-4-yl)-3-oxo-4-(2,3,6-trifluorophenoxy)butan-2-yl)-2-methoxy-2-methylpropanamide]
The IC50 of the first is higher: 1 to 10 µM for the first, 0.1 to 1 µM for the second. The second is the more potent here.

First: N#CN1CCN(c2ccnc(N)c2)CC1 [Compound 33, 4-(2-aminopyridin-4-yl)piperazine-1-carbonitrile]
Second: N#CN1CCC(Oc2ccnc(N)c2)CC1 [Compound 8, 4-((2-aminopyridin-4-yl)oxy)piperidine-1-carbonitrile]
The IC50 of the first is lower: 1 to 10 µM for the first, > 100 µM for the second. The first is the more potent here.

Compared with `CC(COc1ccnc(N)c1)N(C)C#N` (centres unmarked) [Compound 14, N-(1-((2-aminopyridin-4-yl)oxy)propan-2-yl)-N-methylcyanamide], `CCC(COc1ccnc(N)c1)N(C)C#N` (centres unmarked) [Compound 35, N-(1-((2-aminopyridin-4-yl)oxy)butan-2-yl)-N-methylcyanamide] is higher in IC50: 0.1 to 1 µM for the first, 1 to 10 µM for the second. The first is the more potent here.

Compared with `N#CN1CCC[C@H]1C(O)Cc1ccnc(N)c1` (stereo partly drawn) [Compound 31, (2S)-2-(2-(2-aminopyridin-4-yl)-1-hydroxyethyl)pyrrolidine-1-carbonitrile], `N#CN1CCCC1CCc1ccnc(N)c1` (centres unmarked) [Compound 21, 2-(2-(2-aminopyridin-4-yl)ethyl)pyrrolidine-1-carbonitrile] is lower in IC50: > 100 µM for the first, 0.1 to 1 µM for the second.

First: CN(C#N)Cc1ccc2c(N)nccc2c1 [Compound 26, N-((1-aminoisoquinolin-6-yl)methyl)-N-methylcyanamide]
Second: CN(C#N)c1ccc2ccnc(N)c2c1 [Compound 1, N-(1-aminoisoquinolin-7-yl)-N-methylcyanamide]
The IC50 of the first is lower: 0.1 to 1 µM for the first, > 100 µM for the second. The first is the more potent here.

`CC(C)N(C#N)CCc1ccnc(N)c1` [Compound 5, N-(2-(2-aminopyridin-4-yl)ethyl)-N-isopropylcyanamide] and `CC(C)N(C#N)CCCc1ccnc(N)c1` [Compound 6, N-(3-(2-aminopyridin-4-yl)propyl)-N-isopropylcyanamide] fall in the same range of IC50: 10 to 100 µM for the first, 10 to 100 µM for the second.

`Nc1cc(CC(NC(=O)C2CCCC2)C(=O)COc2c(F)ccc(F)c2F)ccn1` (centres unmarked) [Compound 69, N-(1-(2-aminopyridin-4-yl)-3-oxo-4-(2,3,6-trifluorophenoxy)butan-2-yl)cyclopentanecarboxamide] and `Nc1ccc(CC(NC(=O)C2CCCC2)C(=O)COc2c(F)ccc(F)c2F)cn1` (centres unmarked) [Compound 66, N-(1-(6-aminopyridin-3-yl)-3-oxo-4-(2,3,6-trifluorophenoxy)butan-2-yl)cyclopentanecarboxamide] cannot be ordered by IC50: < 0.1 µM for the first, < 0.1 µM for the second.

`N#CN1CCC(Oc2ccnc(N)c2)C1` (centres unmarked) [Compound 2, 3-((2-aminopyridin-4-yl)oxy)pyrrolidine-1-carbonitrile] and `N#CN1CCCC(Oc2ccnc(N)c2)C1` (centres unmarked) [Compound 9, 3-((2-aminopyridin-4-yl)oxy)piperidine-1-carbonitrile] fall in the same range of IC50: 0.1 to 1 µM for the first, 0.1 to 1 µM for the second.

`N#CN1CC(COc2ccnc(N)c2)C1` [Compound 10, 3-(((2-aminopyridin-4-yl)oxy)methyl)azetidine-1-carbonitrile] and `N#CN1CC(Oc2ccnc(N)c2)C1` [Compound 7, 3-((2-aminopyridin-4-yl)oxy)azetidine-1-carbonitrile] cannot be ordered by IC50: > 100 µM for the first, > 100 µM for the second.

First: CNc1cc(OCC2CCCN2C#N)ccn1 (centres unmarked) [Compound 22, 2-(((2-(methylamino)pyridin-4-yl)oxy)methyl)pyrrolidine-1-carbonitrile]
Second: N#CN1CCC[C@H]1COc1ccnc(N)c1 [Compound 19, (S)-2-(((2-aminopyridin-4-yl)oxy)methyl)pyrrolidine-1-carbonitrile]
The IC50 of the first is higher: 0.1 to 1 µM for the first, < 0.1 µM for the second.

`Nc1cc(CC(NC(=O)C2CCCC2)C(=O)COc2c(F)c(F)cc(F)c2F)ccn1` (centres unmarked) [Compound 54, N-(1-(2-aminopyridin-4-yl)-3-oxo-4-(2,3,5,6-tetrafluorophenoxy)butan-2-yl)cyclopentanecarboxamide] and `COC(C)(C)C(=O)NC(Cc1ccnc(N)c1)C(=O)COc1c(F)c(F)cc(F)c1F` (centres unmarked) [Compound 65, N-(1-(2-aminopyridin-4-yl)-3-oxo-4-(2,3,5,6-tetrafluorophenoxy)butan-2-yl)-2-methoxy-2-methylpropanamide] cannot be ordered by IC50: < 0.1 µM for the first, < 0.1 µM for the second.

`N#CN1CCC[C@H]1/C=C/c1ccnc(N)c1` [Compound 32, (S,E)-2-(2-(2-aminopyridin-4-yl)vinyl)pyrrolidine-1-carbonitrile] and `N#CN1CCCCC1COc1ccnc(N)c1` (centres unmarked) [Compound 12, 2-(((2-aminopyridin-4-yl)oxy)methyl)piperidine-1-carbonitrile] fall in the same range of IC50: 0.1 to 1 µM for the first, 0.1 to 1 µM for the second.

Compared with `Cc1cnc(N)cc1OC[C@@H]1CCCN1C#N` [Compound 29, (S)-2-(((2-amino-5-methylpyridin-4-yl)oxy)methyl)pyrrolidine-1-carbonitrile], `N#CN1CCC[C@@H]1c1ccc2c(N)nccc2c1` [Compound 43, (R)-2-(1-aminoisoquinolin-6-yl)pyrrolidine-1-carbonitrile] is lower in IC50: 10 to 100 µM for the first, < 0.1 µM for the second.

`Nc1cc(CC(NC(=O)C2CCCC2)C(=O)COc2ccon2)ccn1` (centres unmarked) [Compound 70, N-(1-(2-aminopyridin-4-yl)-4-(isoxazol-3-yloxy)-3-oxobutan-2-yl)cyclopentanecarboxamide] and `Nc1cc(CCC(NC(=O)C2CCCC2)C(=O)COc2ccon2)ccn1` (centres unmarked) [Compound 71, N-(5-(2-aminopyridin-4-yl)-1-(isoxazol-3-yloxy)-2-oxopentan-3-yl)cyclopentanecarboxamide] fall in the same range of IC50: 0.1 to 1 µM for the first, 0.1 to 1 µM for the second.

First: CN(C#N)Cc1cc2c(N)nccc2o1 [Compound 4, N-((4-aminofuro[3,2-c]pyridin-2-yl)methyl)-N-methylcyanamide]
Second: CN(C#N)Cc1cc2ccnc(N)c2o1 [Compound 48, N-((7-aminofuro[2,3-c]pyridin-2-yl)methyl)-N-methylcyanamide]
The IC50 of the first is higher: 10 to 100 µM for the first, 0.1 to 1 µM for the second. The second is the more potent here.

First: CN(C#N)c1ccccc1Oc1ccnc(N)c1 [Compound 27, N-(2-((2-aminopyridin-4-yl)oxy)phenyl)-N-methylcyanamide]
Second: CN(C#N)C(COc1ccnc(N)c1)c1ccccc1 (centres unmarked) [Compound 36, N-(2-((2-aminopyridin-4-yl)oxy)-1-phenylethyl)-N-methylcyanamide]
The IC50 of the first is higher: > 100 µM for the first, 1 to 10 µM for the second. The second is the more potent here.

`Nc1ccc(CC(NC(=O)C2CCCC2)C(=O)COc2ccon2)cn1` (centres unmarked) [Compound 68, N-(1-(6-aminopyridin-3-yl)-4-(isoxazol-3-yloxy)-3-oxobutan-2-yl)cyclopentanecarboxamide] and `COC(C)(C)C(=O)NC(Cc1ccc(N)nc1)C(=O)COc1c(F)ccc(F)c1F` (centres unmarked) [Compound 61, N-(1-(6-aminopyridin-3-yl)-3-oxo-4-(2,3,6-trifluorophenoxy)butan-2-yl)-2-methoxy-2-methylpropanamide] cannot be ordered by IC50: < 0.1 µM for the first, < 0.1 µM for the second.

First: CC(C)C(COc1ccnc(N)c1)N(C)C#N (centres unmarked) [Compound 34, N-(1-((2-aminopyridin-4-yl)oxy)-3-methylbutan-2-yl)-N-methylcyanamide]
Second: CN(C#N)CCOc1ccnc(N)c1 [Compound 13, N-(2-((2-aminopyridin-4-yl)oxy)ethyl)-N-methylcyanamide]
The IC50 of the first is higher: 1 to 10 µM for the first, 0.1 to 1 µM for the second. The second is the more potent here.

First: N#CN1c2ccccc2CC1COc1ccnc(N)c1 (centres unmarked) [Compound 24, 2-(((2-aminopyridin-4-yl)oxy)methyl)indoline-1-carbonitrile]
Second: N#CN1C[C@@H](O)C[C@@H]1c1ccc2c(N)nccc2c1 [Compound 50b, (2R,4S)-2-(1-aminoisoquinolin-6-yl)-4-hydroxypyrrolidine-1-carbonitrile]
The IC50 of the first is higher: 10 to 100 µM for the first, < 0.1 µM for the second. The second is the more potent here.

Compared with `N#CN1CCC(Sc2ccnc(N)c2)C1` (centres unmarked) [Compound 38, 3-((2-aminopyridin-4-yl)thio)pyrrolidine-1-carbonitrile], `COC(C)(C)C(=O)NC(Cc1ccc(N)nc1)C(=O)COc1c(F)ccc(F)c1F` (centres unmarked) [Compound 62, N-(1-(6-aminopyridin-3-yl)-3-oxo-4-(2,3,6-trifluorophenoxy)butan-2-yl)-2-methoxy-2-methylpropanamide] is lower in IC50: 10 to 100 µM for the first, 0.1 to 1 µM for the second. The second is the more potent here.

same assay, conditions: Activity (RgpB IC50), compound not tested above 1 μM; 0.02 nM RgpB, 10 μM Boc-Phe-Ser-Arg-MCA, 90 minutes, 37° C.

`CN(C)c1nccc2cc([C@@H]3CCCN3C#N)ccc12` [Compound 52a, (S)-2-(1-(dimethylamino)isoquinolin-6-yl)pyrrolidine-1-carbonitrile] and `COC(C)(C)C(=O)NC(Cc1ccc(N)nc1)C(=O)COC(C(F)(F)F)C(F)(F)F` (centres unmarked) [Compound 72, N-(1-(6-aminopyridin-3-yl)-4-((1,1,1,3,3,3-hexafluoropropan-2-yl)oxy)-3-oxobutan-2-yl)-2-methoxy-2-methylpropanamide] cannot be ordered by IC50: > 1 µM for the first, > 1 µM for the second.
